Reference: patent US8729122B2, “Pharmaceutical and nutraceutical compositions of abscisic acid” (Valent BioSciences Corporation, priority 2010, dated 2014)

System: rats
Test: Two Generation Reproduction Toxicity Study (dietary S-ABA)
Assay type: in vivo
Conditions: for SPLEEN WEIGHT, % DIFFERENCE: versus 0 PPM
Protocol: Two Generation Reproduction Toxicity Study
This study was conducted to determine the potential adverse effects of the test substance on reproduction in a 2-generation study. This included determining the effects of the test substance on male and female reproductive processes, including gonadal function, estrous cyclicity, mating behavior, conception, gestation, parturition, lactation, weaning, and on growth and development of the offspring. A minimum of 1 litter was produced in each generation.
Three groups of male and female were offered S-ABA, continuously in the diet for at least 70 consecutive days prior to mating. Target tests substance concentrations were 10,000, 15,000, and 20,000 ppm for the F0 and F1 generations. A concurrent control group of 30 rats/sex was offered the basal diet continuously throughout the study. F0 animals were approximately 7 weeks of age at the initiation of test diet administration. The test diet was administered to the offspring selected to become the F1 generation following weaning. The F0 and F1 males continued to receive the test substance throughout mating and continuing through the day prior to euthanasia. The F0 and F1 females continued to receive the test substance throughout mating, gestation, and lactation, and through the day of euthanasia. For both generations (F1 and F2), 8 pups per litter (4 per sex, when possible) were selected to reduce the variability among the litters. Offspring (30/sex/group, if possible) from the pairing of the F0 animals were selected to constitute the F1 generation.
All animals were observed twice daily for appearance and behavior. Clinical observations, body weights, and food consumption were recorded at appropriate intervals for males throughout the study and for females prior to mating and during gestation and lactation. All F0 and F1 females were allowed to deliver and rear their pups until weaning on lactation day 21. Clinical observations, body weights, and sexes for F1 and F2 pups were recorded at appropriate intervals. Nonselected F1 pups and all surviving F2 pups were necropsied. Selected organs were weighed from 1 pup/sex/litter from F1 and F2 pups that were necropsied. Each surviving F0 and F1 parental animal received a complete detailed gross necropsy following the completion of weaning of the F1 and F2 pups, respectively; selected organs were weighed. Spermatogenic endpoints were recorded for all F0 and F1 males, and ovarian primordial follicle counts were recorded for all F0 and F1 females in the control and high-exposure groups and all F0 and F1 females suspected of reduced fertility. Designated tissues from all F0 and F1 parental animals were examined microscopically.

[1] = second generation pups, 10,000 PPM
[2] = second generation pups, 15,000 PPM
[3] = second generation pups, 20,000 PPM

In the case of `CC1=CC(=O)CC(C)(C)[C@@]1(O)/C=C/C(C)=C\C(=O)O` [S-ABA, (S)-(+)-abscisic acid], the “POSTNATAL SURVIVAL, POSTNATAL DAY 7-14, mean” value (15,000 ppm) is reported as 98.7 % PER LITTER, the “POSTNATAL SURVIVAL, POSTNATAL DAY 14-21, mean” value (15,000 ppm) is reported as 100.0 % PER LITTER and the “OFFSPRING WEIGHT, mean” value (15,000 ppm, female, postnatal day 1) is reported as 6.6 grams. The “OFFSPRING WEIGHT, mean” value (15,000 ppm, female, postnatal day 4) was 8.8 grams, the “OFFSPRING WEIGHT, mean” value (15,000 ppm, female, postnatal day 7) was 14.0 grams and the “OFFSPRING WEIGHT, mean” value (15,000 ppm, female, postnatal day 14) was 29.8 grams. The “OFFSPRING WEIGHT, mean” value (15,000 ppm, female, postnatal day 21) was 45.8 grams, the “OFFSPRING WEIGHT, mean” value (15,000 ppm, male, postnatal day 1) was 6.9 grams and the “OFFSPRING WEIGHT, mean” value (15,000 ppm, male, postnatal day 4) was 9.3 grams. For the same molecule, the “OFFSPRING WEIGHT, mean” value (15,000 ppm, male, postnatal day 7) was 14.7 grams, the “OFFSPRING WEIGHT, mean” value (15,000 ppm, male, postnatal day 14) was 30.8 grams and the “OFFSPRING WEIGHT, mean” value (15,000 ppm, male, postnatal day 21) was 47.8 grams. The “SPERM PRODUCTION RATE, mean” value (20,000 PPM) was 10.5 MILLIONS/GRAM/DAY, the “Mean Live Offspring Born (per litter)” value (20,000 ppm) was 12.3 and the “Offspring Born” value (20,000 ppm) was 327. For the same molecule, the “Offspring FOUND DEAD” value (20,000 ppm) was 11, the “POSTNATAL SURVIVAL, BIRTH-4 (PRE-SELECT), mean” value (20,000 ppm) was 96.8 % PER LITTER and the “POSTNATAL SURVIVAL, POSTNATAL DAY 0 (RELATIVE TO # BORN), mean” value (20,000 ppm) was 98.5 % PER LITTER. For the same molecule, the “POSTNATAL SURVIVAL, POSTNATAL DAY 0-1, mean” value (20,000 ppm) was 99.7 % PER LITTER, the “POSTNATAL SURVIVAL, POSTNATAL DAY 1-4 (PRE-SELECTION), mean” value (20,000 ppm) was 98.5 % PER LITTER and the “POSTNATAL SURVIVAL, POSTNATAL DAY 4 (POST-SELECT)-21, mean” value (20,000 ppm) was 98.0 % PER LITTER. For the same molecule, the “POSTNATAL SURVIVAL, POSTNATAL DAY 4 (POST-SELECTION)-7, mean” value (20,000 ppm) was 98.5 % PER LITTER, the “POSTNATAL SURVIVAL, POSTNATAL DAY 7-14, mean” value (20,000 ppm) was 99.5 % PER LITTER and the “POSTNATAL SURVIVAL, POSTNATAL DAY 14-21, mean” value (20,000 ppm) was 100.0 % PER LITTER. For the same molecule, the “OFFSPRING WEIGHT, mean” value (20,000 ppm, female, postnatal day 1) was 6.6 grams, the “OFFSPRING WEIGHT, mean” value (20,000 ppm, female, postnatal day 4) was 8.8 grams and the “OFFSPRING WEIGHT, mean” value (20,000 ppm, female, postnatal day 7) was 14.5 grams. The “OFFSPRING WEIGHT, mean” value (20,000 ppm, female, postnatal day 14) was 30.5 grams, the “OFFSPRING WEIGHT, mean” value (20,000 ppm, female, postnatal day 21) was 46.6 grams and the “OFFSPRING WEIGHT, mean” value (20,000 ppm, male, postnatal day 1) was 7.0 grams. The “OFFSPRING WEIGHT, mean” value (20,000 ppm, male, postnatal day 4) was 9.3 grams, the “OFFSPRING WEIGHT, mean” value (20,000 ppm, male, postnatal day 7) was 15.1 grams and the “OFFSPRING WEIGHT, mean” value (20,000 ppm, male, postnatal day 14) was 31.2 grams. The “OFFSPRING WEIGHT, mean” value (20,000 ppm, male, postnatal day 21) was 48.1 grams, the “OVARIAN PRIMORDIAL FOLLICLE COUNTS, mean” value (females, 10,000 PPM) was 257.5 and the “OVARIAN PRIMORDIAL FOLLICLE COUNTS, mean” value (females, 15,000 PPM) was 214.0. For the same molecule, the “OVARIAN PRIMORDIAL FOLLICLE COUNTS, mean” value (females, 20,000 PPM) was 270.3, the “PROSTATE WEIGHT, ORGAN WEIGHT, mean” value (male rats, 10,000 ppm in diet) was 1.08 GRAMS and the “PROSTATE WEIGHT, ORGAN WEIGHT, mean” value (male rats, 15,000 ppm in diet) was 1.13 GRAMS. For the same molecule, the “PROSTATE WEIGHT, ORGAN WEIGHT, mean” value (male rats, 20,000 ppm in diet) was 1.09 GRAMS, the “SPLEEN WEIGHT, mean” value (males, 10,000 PPM) was 0.98 GRAMS and the “SPLEEN WEIGHT, % DIFFERENCE” value (males, 10,000 PPM) was −2.0%. For the same molecule, the “SPLEEN WEIGHT, mean” value (males, 15,000 PPM) was 0.97 GRAMS, the “SPLEEN WEIGHT, % DIFFERENCE” value (males, 15,000 PPM) was −3.0% and the “SPLEEN WEIGHT, mean” value (males, 20,000 PPM) was 0.92 GRAMS. The “SPLEEN WEIGHT, % DIFFERENCE” value (males, 20,000 PPM) was −8.9%, the “impact of prostate weight reduction on sperm production” value (rats, two-generation study) was “no impact on sperm production” and the “SPLEEN WEIGHT, mean” value [1] was 0.1989 GRAMS. For the same molecule, the “SPLEEN WEIGHT, % DIFFERENCE” value [1] was −14.8%, the “SPLEEN WEIGHT, mean” value [2] was 0.1918 GRAMS and the “SPLEEN WEIGHT, % DIFFERENCE” value [2] was −17.8%. For the same molecule, the “SPLEEN WEIGHT, mean” value [3] was 0.1979 GRAMS and the “SPLEEN WEIGHT, % DIFFERENCE” value [3] was −15.2%.
